From BindingDB's records for doi:10.7270/Q2NZ862K (Nmmlsc, 2007)

Target: T1, fMet-Leu-Phe receptor (Homo sapiens, UniProt P21462)
T1 sequence (P21462 whole entry): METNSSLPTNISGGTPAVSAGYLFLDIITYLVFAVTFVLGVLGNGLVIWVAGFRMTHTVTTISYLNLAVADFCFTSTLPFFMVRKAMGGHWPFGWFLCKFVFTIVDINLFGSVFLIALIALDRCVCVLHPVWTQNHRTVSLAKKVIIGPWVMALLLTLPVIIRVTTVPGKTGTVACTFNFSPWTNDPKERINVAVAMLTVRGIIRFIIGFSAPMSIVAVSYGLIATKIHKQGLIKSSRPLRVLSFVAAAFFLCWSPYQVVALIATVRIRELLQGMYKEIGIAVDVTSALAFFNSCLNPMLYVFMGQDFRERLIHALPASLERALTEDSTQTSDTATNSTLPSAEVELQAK
Experiment: FPR ligands, dose response (AID 519)

Row | Ki [µM] | SMILES
1 | 24.1 | COc1ccc(C2C(C(=O)c3ccco3)C(=O)C(=O)N2CCc2ccccc2)cc1OC (centres undefined) [2-(3,4-dimethoxyphenyl)-3-(furan-2-carbonyl)-4-hydroxy-1-(2-phenylethyl)-2H-pyrrol-5-one]
2 | > 43.7 | COc1ccc(C2C(C(=O)c3ccco3)C(=O)C(=O)N2Cc2cccnc2)cc1OC (centres undefined) [2-(3,4-dimethoxyphenyl)-3-(furan-2-carbonyl)-4-hydroxy-1-(pyridin-3-ylmethyl)-2H-pyrrol-5-one]
3 | 31.2 | COc1cc(C2C(C(=O)c3ccco3)C(=O)C(=O)N2c2cc(C)on2)cc(Br)c1O (centres undefined) [2-(3-bromanyl-5-methoxy-4-oxidanyl-phenyl)-3-(furan-2-ylcarbonyl)-1-(5-methyl-1,2-oxazol-3-yl)-4-oxidanyl-2H-pyrrol-5-one]
4 | > 43.7 | CCOc1cc(C2C(C(=O)c3ccco3)C(=O)C(=O)N2CCc2ccccc2)ccc1O (centres undefined) [2-(3-ethoxy-4-hydroxyphenyl)-3-(furan-2-carbonyl)-4-hydroxy-1-(2-phenylethyl)-2H-pyrrol-5-one]
5 | 19.9 | CCOc1cc(C2C(C(=O)c3ccc(C)o3)C(=O)C(=O)N2CCc2ccccc2)ccc1O (centres undefined) [2-(3-ethoxy-4-hydroxyphenyl)-4-hydroxy-3-(5-methylfuran-2-carbonyl)-1-(2-phenylethyl)-2H-pyrrol-5-one]
6 | 12.9 | COc1cc(C2C(C(=O)c3ccc(C)o3)C(=O)C(=O)N2CCc2ccccc2)ccc1O (centres undefined) [2-(3-methoxy-4-oxidanyl-phenyl)-3-(5-methylfuran-2-yl)carbonyl-4-oxidanyl-1-(2-phenylethyl)-2H-pyrrol-5-one]
7 | > 43.7 | COc1cc(C2C(C(=O)c3ccc(C)o3)C(=O)C(=O)N2Cc2cccnc2)ccc1O (centres undefined) [2-(3-methoxy-4-oxidanyl-phenyl)-3-(5-methylfuran-2-yl)carbonyl-4-oxidanyl-1-(pyridin-3-ylmethyl)-2H-pyrrol-5-one]
8 | 10 | CCOc1ccc(C2C(C(=O)c3ccco3)C(=O)C(=O)N2Cc2cccnc2)cc1 (centres undefined) [2-(4-ethoxyphenyl)-3-(furan-2-carbonyl)-4-hydroxy-1-(pyridin-3-ylmethyl)-2H-pyrrol-5-one]
9 | 27.9 | CCCOc1ccc(C2C(C(=O)c3ccc(C)o3)C(=O)C(=O)N2Cc2cccnc2)cc1 (centres undefined) [3-(5-methylfuran-2-yl)carbonyl-4-oxidanyl-2-(4-propoxyphenyl)-1-(pyridin-3-ylmethyl)-2H-pyrrol-5-one]
10 | > 43.7 | O=C1C(=O)N(CCc2ccccc2)C(c2cccnc2)C1C(=O)c1ccco1 (centres undefined) [3-(furan-2-carbonyl)-4-hydroxy-1-(2-phenylethyl)-2-pyridin-3-yl-2H-pyrrol-5-one]
11 | > 43.7 | Cc1cc(N2C(=O)C(=O)C(C(=O)c3ccco3)C2c2cccnc2)no1 (centres undefined) [3-(furan-2-carbonyl)-4-hydroxy-1-(5-methyl-1,2-oxazol-3-yl)-2-pyridin-3-yl-2H-pyrrol-5-one]
12 | > 43.7 | COc1cc(C2C(C(=O)c3ccco3)C(=O)C(=O)N2CCc2ccccc2)ccc1O (centres undefined) [3-(furan-2-carbonyl)-4-hydroxy-2-(4-hydroxy-3-methoxyphenyl)-1-(2-phenylethyl)-2H-pyrrol-5-one]
13 | 6.4 | C=CCOc1ccc(C2C(C(=O)c3ccco3)C(=O)C(=O)N2Cc2cccnc2)cc1 (centres undefined) [3-(furan-2-carbonyl)-4-hydroxy-2-(4-prop-2-enoxyphenyl)-1-(pyridin-3-ylmethyl)-2H-pyrrol-5-one]
14 | 28.1 | COC(=O)c1ccc(C2C(C(=O)c3ccc(OC)cc3)C(=O)C(=O)N2Cc2ccco2)cc1 (centres undefined) [4-[(3Z)-1-(2-furanylmethyl)-3-[hydroxy-(4-methoxyphenyl)methylidene]-4,5-dioxo-2-pyrrolidinyl]benzoic acid methyl ester]

Further lines, the compound ahead of its results:

Row | SMILES | Ki [µM]
15 | O=C1C(=O)N(c2ncccn2)C(c2ccc(Cl)c(Cl)c2)C1C(=O)c1ccco1 (centres undefined) [2-(3,4-dichlorophenyl)-3-(furan-2-carbonyl)-4-hydroxy-1-pyrimidin-2-yl-2H-pyrrol-5-one] | > 43.7
16 | COc1ccc(C2C(C(=O)c3cccs3)C(=O)C(=O)N2c2nnc(C)s2)cc1OC (centres undefined) [2-(3,4-dimethoxyphenyl)-1-(5-methyl-1,3,4-thiadiazol-2-yl)-4-oxidanyl-3-thiophen-2-ylcarbonyl-2H-pyrrol-5-one] | > 43.7
17 | COCCCN1C(=O)C(=O)C(C(=O)c2ccco2)C1c1cccc(Br)c1 (centres undefined) [2-(3-bromophenyl)-3-(furan-2-carbonyl)-4-hydroxy-1-(3-methoxypropyl)-2H-pyrrol-5-one] | 20.4
18 | O=C1C(=O)N(c2ncccn2)C(c2cccc(Cl)c2)C1C(=O)c1ccco1 (centres undefined) [2-(3-chlorophenyl)-3-(furan-2-carbonyl)-4-hydroxy-1-pyrimidin-2-yl-2H-pyrrol-5-one] | > 43.7
19 | COCCCN1C(=O)C(=O)C(C(=O)c2ccco2)C1c1ccc(Br)cc1 (centres undefined) [2-(4-bromophenyl)-3-(furan-2-carbonyl)-4-hydroxy-1-(3-methoxypropyl)-2H-pyrrol-5-one] | 9.6
20 | Cc1nc(C)c(C(=O)C2C(=O)C(=O)N(CCCn3ccnc3)C2c2ccc(Cl)cc2)s1 (centres undefined) [2-(4-chlorophenyl)-3-(2,4-dimethyl-1,3-thiazole-5-carbonyl)-4-hydroxy-1-(3-imidazol-1-ylpropyl)-2H-pyrrol-5-one] | > 43.7
21 | O=C1C(=O)N(c2ncccn2)C(c2ccc(Cl)cc2)C1C(=O)c1ccco1 (centres undefined) [2-(4-chlorophenyl)-3-(furan-2-carbonyl)-4-hydroxy-1-pyrimidin-2-yl-2H-pyrrol-5-one] | > 43.7
22 | CCOc1ccc(C2C(C(=O)c3cccs3)C(=O)C(=O)N2CCCn2ccnc2)cc1 (centres undefined) [2-(4-ethoxyphenyl)-1-(3-imidazol-1-ylpropyl)-4-oxidanyl-3-thiophen-2-ylcarbonyl-2H-pyrrol-5-one] | 37.4
23 | CCOc1ccc(C2C(C(=O)c3ccco3)C(=O)C(=O)N2CCCn2ccnc2)cc1 (centres undefined) [2-(4-ethoxyphenyl)-3-(furan-2-carbonyl)-4-hydroxy-1-(3-imidazol-1-ylpropyl)-2H-pyrrol-5-one] | 6.4
24 | COC(=O)Cc1n[nH]c2c1C(C1C=CCCC1)C(C#N)C(=N)O2 (centres undefined) [2-[6-amino-5-cyano-4-(1-cyclohex-2-enyl)-2,4-dihydropyrano[2,3-c]pyrazol-3-yl]acetic acid methyl ester] | > 43.7
25 | CCCCc1c(O)n(-c2ccccc2)n(-c2ccccc2)c1=O [3,5-Dioxo-1,2-diphenyl-4-n-butylpyrazolidine] | 3.5
26 | COc1cccc(C2C(C(=O)c3cc4ccccc4o3)C(=O)C(=O)N2c2cc(C)on2)c1OC (centres undefined) [3-(1-benzofuran-2-carbonyl)-2-(2,3-dimethoxyphenyl)-4-hydroxy-1-(5-methyl-1,2-oxazol-3-yl)-2H-pyrrol-5-one] | > 43.7
27 | COc1ccc(OC)c(C2C(C(=O)c3cc4ccccc4o3)C(=O)C(=O)N2c2cc(C)on2)c1 (centres undefined) [3-(1-benzofuran-2-carbonyl)-2-(2,5-dimethoxyphenyl)-4-hydroxy-1-(5-methyl-1,2-oxazol-3-yl)-2H-pyrrol-5-one] | 23.9
28 | O=C1C(=O)N(CCCN2CCOCC2)C(c2ccccn2)C1C(=O)c1cc2ccccc2o1 (centres undefined) [3-(1-benzofuran-2-carbonyl)-4-hydroxy-1-(3-morpholin-4-ylpropyl)-2-pyridin-2-yl-2H-pyrrol-5-one] | 39.7
29 | Cc1ccc(C2C(C(=O)c3sc(C)nc3C)C(=O)C(=O)N2CCN2CCOCC2)o1 (centres undefined) [3-(2,4-dimethyl-1,3-thiazole-5-carbonyl)-4-hydroxy-2-(5-methylfuran-2-yl)-1-(2-morpholin-4-ylethyl)-2H-pyrrol-5-one] | > 43.7
30 | COCCN1C(=O)C(=O)C(C(=O)c2ccco2)C1c1cccc(Oc2ccccc2)c1 (centres undefined) [3-(furan-2-carbonyl)-4-hydroxy-1-(2-methoxyethyl)-2-(3-phenoxyphenyl)-2H-pyrrol-5-one] | 36.7
31 | C=CCOc1cccc(C2C(C(=O)c3ccco3)C(=O)C(=O)N2CCN2CCOCC2)c1 (centres undefined) [3-(furan-2-carbonyl)-4-hydroxy-1-(2-morpholin-4-ylethyl)-2-(3-prop-2-enoxyphenyl)-2H-pyrrol-5-one] | > 43.7
32 | CCCOc1ccc(C2C(C(=O)c3ccco3)C(=O)C(=O)N2CCCn2ccnc2)cc1 (centres undefined) [3-(furan-2-carbonyl)-4-hydroxy-1-(3-imidazol-1-ylpropyl)-2-(4-propoxyphenyl)-2H-pyrrol-5-one] | > 43.7
33 | COCCCN1C(=O)C(=O)C(C(=O)c2ccco2)C1c1ccccc1 (centres undefined) [3-(furan-2-carbonyl)-4-hydroxy-1-(3-methoxypropyl)-2-phenyl-2H-pyrrol-5-one] | 9.5
34 | O=C1C(=O)N(CC2CCCO2)C(c2cccnc2)C1C(=O)c1ccco1 (centres undefined) [3-(furan-2-carbonyl)-4-hydroxy-1-(oxolan-2-ylmethyl)-2-pyridin-3-yl-2H-pyrrol-5-one] | 35.9
35 | COCc1cc(C2C(C(=O)c3ccco3)C(=O)C(=O)N2CCOCCO)ccc1O (centres undefined) [3-(furan-2-carbonyl)-4-hydroxy-1-[2-(2-hydroxyethoxy)ethyl]-2-[4-hydroxy-3-(methoxymethyl)phenyl]-2H-pyrrol-5-one] | 19.4
36 | O=C1CCCC(=O)C1C(C#Cc1ccccc1)C1C(=O)CCCC1=O [3-hydroxy-2-[1-(2-hydroxy-6-keto-cyclohexen-1-yl)-3-phenyl-prop-2-ynyl]cyclohex-2-en-1-one] | > 43.7
37 | COC(=O)c1[nH]c(C)c(C(=O)C2C(=O)C(=O)N(CCN3CCOCC3)C2c2cccnc2)c1C (centres undefined) [4-[(E)-hydroxy-[1-[2-(4-morpholinyl)ethyl]-4,5-dioxo-2-(3-pyridinyl)-3-pyrrolidinylidene]methyl]-3,5-dimethyl-1H-pyrrole-2-carboxylic acid methyl ester] | 13.6
38 | Cc1ccsc1C1C2C(=O)CC(C)(C)CC2=Nc2ncnn21 (centres undefined) [6,6-dimethyl-9-(3-methyl-2-thienyl)-1,5,7,9-tetrahydro-[1,2,4]triazolo[5,1-b]quinazolin-8-one] | 8.2
39 | COc1cc(-n2nc(C)c3c2OC(=N)C(C#N)C3c2ccccc2)c(Cl)c(Br)c1O (centres undefined) [6-amino-1-(3-bromo-2-chloro-4-hydroxy-5-methoxyphenyl)-3-methyl-4-phenyl-1,4-dihydropyrano[2,3-c]pyrazole-5-carbonitrile] | 21.3
